# In patent US20240285679A1, “COMPOSITIONS AND METHODS FOR VISION IMPROVEMENT” (Azura Ophthalmics Ltd., priority 2021, published 2024):
# Test system: Patients with vision loss
# Experiment: Clinical evaluation of vision improvement (OSDI vision assessment)
# Type: in vivo
# Settings: for course of OSDI vision improvement over the follow-up: follow-up at two weeks, one month, six weeks and 3 months; for vision, change from baseline as assessed by the OSDI vision assessment: twice a week on the lower eyelid of both eyes, FIGS. 2A-2C
# Experimental: Patients with vision loss were treated with control (N=26) or a drug formulation comprising 0.1% selenium disulfide (n=9), 0.5% selenium disulfide (n=26), or 1% selenium disulfide (n=34). Treatment consisted of twice a week application of the drug product on the lower eyelid of both eyes. Patients were followed up and their vision was assessed with an Ocular Surface Disease Index (OSDI) vision assessment after two weeks, one month, six weeks, and 3 months.
substance,measurement,setting,value
selenium disulfide,course of OSDI vision improvement over the follow-up,0.5% selenium disulfide,continued improvement from 2 weeks to three months
same,course of OSDI vision improvement over the follow-up,1% selenium disulfide,continued improvement from 2 weeks to three months
same,"vision, change from baseline as assessed by the OSDI vision assessment",drug formulation comprising 0.5% selenium disulfide,improvement in vision
same,"vision, change from baseline as assessed by the OSDI vision assessment",drug formulation comprising 1% selenium disulfide,improvement in vision
